Test results: EPA's CvTdb concentration-time database

What was measured:
[1] = test system: rat; assay: concentration in expired air after dosing; negative times count back from the end of exposure; settings: dosed: 1,1-dichloroethylene, inhalation, duration: 3 hr, male, Sprague-Dawley
[2] = test system: Mouse; assay: concentration in plasma after dosing; settings: dosed: 2,4-Dichlorophenoxyacetic acid, 5.2 mg/kg, oral, Male, B6C3F1
[3] = test system: Mouse; assay: concentration in plasma after dosing; settings: 2 h; dosed: 2-Hydroxy-4-methoxybenzophenone; 50 mg/kg; iv; Male; B6C3F1
[4] = test system: Mouse; assay: concentration in plasma after dosing; settings: 3 h; dosed: 2-Hydroxy-4-methoxybenzophenone; 250 mg/kg; oral; Male; B6C3F1
[5] = test system: Rat; assay: concentration in plasma after dosing; settings: dosed: 2-Hydroxy-4-methoxybenzophenone, 100 mg/kg, oral, Female, F344
[6] = test system: Rat; assay: concentration in brain after dosing; settings: 12 h; dosed: Perfluorohexane-1-sulphonic acid – potassium salt; 16 mg/kg; oral; Female; Harlan Sprague Dawley
[7] = test system: Rat; assay: concentration in liver after dosing; settings: 6 h; dosed: Perfluorohexane-1-sulphonic acid – potassium salt; 16 mg/kg; oral; Female; Harlan Sprague Dawley
[8] = test system: Rat; assay: concentration in kidney after dosing; settings: 12 h; dosed: Perfluorohexane-1-sulphonic acid – potassium salt; 16 mg/kg; oral; Female; Harlan Sprague Dawley
[9] = test system: Rat; assay: concentration in kidney after dosing; settings: 6 h; dosed: Perfluorohexane-1-sulphonic acid – potassium salt; 16 mg/kg; oral; Female; Harlan Sprague Dawley
[10] = test system: Rat; assay: concentration in plasma after dosing; settings: 2 h; dosed: Pyridine; 10 mg/kg; iv; Male; F344
[11] = test system: Rat; assay: concentration in plasma after dosing; settings: dosed: Pyridine, 5 mg/kg, iv, Male, F344
[12] = test system: Rat; assay: concentration in brain after dosing; settings: 5 min; dosed: alpha-Thujone; 25 mg/kg; oral; Male; Harlan Sprague Dawley
[13] = test system: Rat; assay: concentration in plasma after dosing; settings: 3 h; dosed: alpha-Thujone; 25 mg/kg; oral; Female; Harlan Sprague Dawley

Structure (SMILES): C=C(Cl)Cl [1,1-dichloroethylene]
- concentration in expired air ([1]; 9 s, 150 ppm): 121 ppm
- concentration in expired air ([1]; 88 s, 75 ppm): 12.1 ppm
- concentration in expired air ([1]; 205 s, 75 ppm): 6.41 ppm
- concentration in expired air ([1]; 0.1527 h, 150 ppm): 5.19 ppm
- concentration in expired air ([1]; 0.2485 h, 150 ppm): 3.34 ppm
- concentration in expired air ([1]; 0.2565 h, 25 ppm): 3.35 ppm
- concentration in expired air ([1]; 0.3921 h, 25 ppm): 3.42 ppm
- concentration in expired air ([1]; 0.3921 h, 150 ppm): 3.42 ppm
- concentration in expired air ([1]; 0.4997 h, 150 ppm): 3.48 ppm
- concentration in expired air ([1]; 0.5037 h, 25 ppm): 3.48 ppm
- concentration in expired air ([1]; -1 s, 25 ppm, during exposure): 22.2 ppm
- concentration in expired air ([1]; -15 s, 75 ppm, during exposure): 63.3 ppm
- concentration in expired air ([1]; -0.1331 h, 150 ppm, during exposure): 121 ppm
- concentration in expired air ([1]; -0.1358 h, 75 ppm, during exposure): 63.9 ppm
- concentration in expired air ([1]; -0.1359 h, 25 ppm, during exposure): 22.4 ppm
- concentration in expired air ([1]; -0.2555 h, 25 ppm, during exposure): 22.1 ppm
- concentration in expired air ([1]; -0.2633 h, 75 ppm, during exposure): 63.2 ppm
- concentration in expired air ([1]; -0.2646 h, 150 ppm, during exposure): 120 ppm
- concentration in expired air ([1]; -0.3961 h, 150 ppm, during exposure): 119 ppm
- concentration in expired air ([1]; -0.3988 h, 75 ppm, during exposure): 63.1 ppm
- concentration in expired air ([1]; -0.399 h, 25 ppm, during exposure): 22.6 ppm
- concentration in expired air ([1]; -0.5345 h, 25 ppm, during exposure): 22.2 ppm
- concentration in expired air ([1]; -0.5384 h, 75 ppm, during exposure): 63.7 ppm
- concentration in expired air ([1]; -0.5396 h, 150 ppm, during exposure): 120 ppm
- concentration in expired air ([1]; -0.6461 h, 25 ppm, during exposure): 21.2 ppm
- concentration in expired air ([1]; -0.6578 h, 75 ppm, during exposure): 62 ppm
- concentration in expired air ([1]; -0.6591 h, 150 ppm, during exposure): 118 ppm
- concentration in expired air ([1]; -0.7936 h, 25 ppm, during exposure): 22.1 ppm
- concentration in expired air ([1]; -0.7986 h, 150 ppm, during exposure): 119 ppm
- concentration in expired air ([1]; -0.8014 h, 75 ppm, during exposure): 62.6 ppm
- concentration in expired air ([1]; -0.9261 h, 150 ppm, during exposure): 117 ppm
- concentration in expired air ([1]; -0.9328 h, 75 ppm, during exposure): 61.6 ppm
- concentration in expired air ([1]; -0.9371 h, 25 ppm, during exposure): 21.7 ppm
- concentration in expired air ([1]; -1.08 h, 75 ppm, during exposure): 61.2 ppm
- concentration in expired air ([1]; -1.085 h, 25 ppm, during exposure): 21.9 ppm
- concentration in expired air ([1]; -1.085 h, 150 ppm, during exposure): 117 ppm
- concentration in expired air ([1]; -1.204 h, 25 ppm, during exposure): 21.5 ppm
- concentration in expired air ([1]; -1.208 h, 75 ppm, during exposure): 60.8 ppm
- concentration in expired air ([1]; -1.209 h, 150 ppm, during exposure): 115 ppm
- concentration in expired air ([1]; -1.343 h, 75 ppm, during exposure): 60.7 ppm
- concentration in expired air ([1]; -1.344 h, 25 ppm, during exposure): 21.5 ppm
- concentration in expired air ([1]; -1.344 h, 150 ppm, during exposure): 114 ppm
- concentration in expired air ([1]; -1.479 h, 75 ppm, during exposure): 61.3 ppm
- concentration in expired air ([1]; -1.483 h, 25 ppm, during exposure): 21.4 ppm
- concentration in expired air ([1]; -1.484 h, 150 ppm, during exposure): 114 ppm
- concentration in expired air ([1]; -1.595 h, 25 ppm, during exposure): 21.3 ppm
- concentration in expired air ([1]; -1.595 h, 150 ppm, during exposure): 113 ppm
- concentration in expired air ([1]; -1.598 h, 75 ppm, during exposure): 60.6 ppm
- concentration in expired air ([1]; -1.73 h, 25 ppm, during exposure): 20.9 ppm
- concentration in expired air ([1]; -1.735 h, 150 ppm, during exposure): 112 ppm
- concentration in expired air ([1]; -1.738 h, 75 ppm, during exposure): 60.5 ppm
- concentration in expired air ([1]; -1.854 h, 25 ppm, during exposure): 20.6 ppm
- concentration in expired air ([1]; -1.857 h, 75 ppm, during exposure): 59.8 ppm
- concentration in expired air ([1]; -1.858 h, 150 ppm, during exposure): 111 ppm
- concentration in expired air ([1]; -1.993 h, 25 ppm, during exposure): 20.5 ppm
- concentration in expired air ([1]; -1.997 h, 75 ppm, during exposure): 60.7 ppm
- concentration in expired air ([1]; -1.998 h, 150 ppm, during exposure): 111 ppm
- concentration in expired air ([1]; -2.058 h, 150 ppm, during exposure): 111 ppm
- concentration in expired air ([1]; -2.061 h, 25 ppm, during exposure): 20.1 ppm
- concentration in expired air ([1]; -2.061 h, 75 ppm, during exposure): 61 ppm
- concentration in expired air ([1]; -2.125 h, 25 ppm, during exposure): 17.6 ppm
- concentration in expired air ([1]; -2.129 h, 75 ppm, during exposure): 60.6 ppm
- concentration in expired air ([1]; -2.137 h, 150 ppm, during exposure): 110 ppm
- concentration in expired air ([1]; -2.189 h, 25 ppm, during exposure): 19.7 ppm
- concentration in expired air ([1]; -2.196 h, 75 ppm, during exposure): 57.4 ppm
- concentration in expired air ([1]; -2.197 h, 150 ppm, during exposure): 112 ppm
- concentration in expired air ([1]; -2.256 h, 25 ppm, during exposure): 19.7 ppm
- concentration in expired air ([1]; -2.257 h, 150 ppm, during exposure): 110 ppm
- concentration in expired air ([1]; -2.26 h, 75 ppm, during exposure): 59.3 ppm
- concentration in expired air ([1]; -2.336 h, 25 ppm, during exposure): 20.6 ppm
- concentration in expired air ([1]; -2.336 h, 75 ppm, during exposure): 59.9 ppm
- concentration in expired air ([1]; -2.336 h, 150 ppm, during exposure): 108 ppm
- concentration in expired air ([1]; -2.396 h, 150 ppm, during exposure): 109 ppm
- concentration in expired air ([1]; -2.4 h, 25 ppm, during exposure): 19.6 ppm
- concentration in expired air ([1]; -2.408 h, 75 ppm, during exposure): 58.9 ppm
- concentration in expired air ([1]; -2.456 h, 150 ppm, during exposure): 107 ppm
- concentration in expired air ([1]; -2.46 h, 25 ppm, during exposure): 19.6 ppm
- concentration in expired air ([1]; -2.475 h, 75 ppm, during exposure): 58.8 ppm
- concentration in expired air ([1]; -2.531 h, 150 ppm, during exposure): 104 ppm
- concentration in expired air ([1]; -2.535 h, 25 ppm, during exposure): 18.9 ppm
- concentration in expired air ([1]; -2.539 h, 75 ppm, during exposure): 57.5 ppm
- concentration in expired air ([1]; -2.591 h, 25 ppm, during exposure): 17.9 ppm
- concentration in expired air ([1]; -2.595 h, 150 ppm, during exposure): 97.7 ppm
- concentration in expired air ([1]; -2.599 h, 75 ppm, during exposure): 56.2 ppm
- concentration in expired air ([1]; -2.651 h, 25 ppm, during exposure): 16.6 ppm
- concentration in expired air ([1]; -2.654 h, 150 ppm, during exposure): 93.5 ppm
- concentration in expired air ([1]; -2.658 h, 75 ppm, during exposure): 54.9 ppm
- concentration in expired air ([1]; -2.726 h, 25 ppm, during exposure): 15 ppm
- concentration in expired air ([1]; -2.73 h, 75 ppm, during exposure): 54.3 ppm
- concentration in expired air ([1]; -2.733 h, 150 ppm, during exposure): 88.4 ppm
- concentration in expired air ([1]; -2.792 h, 150 ppm, during exposure): 82.7 ppm
- concentration in expired air ([1]; -2.794 h, 25 ppm, during exposure): 14.7 ppm
- concentration in expired air ([1]; -2.798 h, 75 ppm, during exposure): 52.3 ppm
- concentration in expired air ([1]; -2.856 h, 150 ppm, during exposure): 76.7 ppm
- concentration in expired air ([1]; -2.858 h, 25 ppm, during exposure): 12.4 ppm
- concentration in expired air ([1]; -2.861 h, 75 ppm, during exposure): 48.8 ppm
- concentration in expired air ([1]; -2.925 h, 25 ppm, during exposure): 13.3 ppm
- concentration in expired air ([1]; -2.926 h, 300 ppm, during exposure): 190 ppm
- concentration in expired air ([1]; -2.927 h, 150 ppm, during exposure): 71.9 ppm
- concentration in expired air ([1]; -2.933 h, 75 ppm, during exposure): 46.2 ppm

Structure (SMILES): O=C(O)COc1ccc(Cl)cc1Cl [2,4-Dichlorophenoxyacetic acid]
- concentration in plasma ([2]; 5 min): 18900 ng/mL
- concentration in plasma ([2]; 0.25 h): 12900 ng/mL
- concentration in plasma ([2]; 0.5 h): 21100 ng/mL
- concentration in plasma ([2]; 2 h): 18600 ng/mL
- concentration in plasma ([2]; 3 h): 8140 ng/mL
- concentration in plasma ([2]; 4 h): 8940 ng/mL
- concentration in plasma ([2]; 6 h): 2910 ng/mL
- concentration in plasma ([2]; 10 h): 212 ng/mL

Structure (SMILES): O=C(c1ccccc1)c1ccc(O)cc1O [2,4-Dihydroxybenzophenone]
- concentration in plasma [3]: 217 ng/mL
- concentration in plasma [4]: 371 ng/mL
- concentration in plasma ([5]; 10 min): 126 ng/mL
- concentration in plasma ([5]; 3 h): 59 ng/mL

Structure (SMILES): O=S(=O)([O-])C(F)(F)C(F)(F)C(F)(F)C(F)(F)C(F)(F)C(F)(F)F.[K+] [Perfluorohexane-1-sulphonic acid – potassium salt]
- concentration in brain [6]: 1190 ng/g
- concentration in liver [7]: 48400 ng/g
- concentration in kidney [8]: 31200 ng/g
- concentration in kidney [9]: 36900 ng/g

Structure (SMILES): c1ccncc1 [Pyridine]
- concentration in plasma [10]: 1320 ng/mL
- concentration in plasma ([11]; 0.05 h): 4920 ng/mL
- concentration in plasma ([11]; 4 h): 1440 ng/mL

Structure (SMILES): CC(C)[C@]12CC(=O)[C@H](C)[C@H]1C2 [alpha-Thujone]
- concentration in brain [12]: 589 ng/g
- concentration in plasma [13]: 176 ng/mL
